Measurements: US20260258064A1 (SIRONAX LTD., priority 2023, published 2026)

Each compound was assayed against T1, SARM1 (50-724) (Homo sapiens, UniProt Q6SZW1) (assay: SARM1 (50-724) enzymatic assay (LC-MS/MS)). Details: Purified SARM1 (50-724) 2 nM, NMN as activator, NAD+ as substrate, 1 h at room temperature, read-out: IC50 (SARM1 inhibitory activity).
T1 construct: Purified SARM1 (50-724) with a final concentration of 2 nM was pre-incubated with a test compound
T1 sequence (Q6SZW1 50-724): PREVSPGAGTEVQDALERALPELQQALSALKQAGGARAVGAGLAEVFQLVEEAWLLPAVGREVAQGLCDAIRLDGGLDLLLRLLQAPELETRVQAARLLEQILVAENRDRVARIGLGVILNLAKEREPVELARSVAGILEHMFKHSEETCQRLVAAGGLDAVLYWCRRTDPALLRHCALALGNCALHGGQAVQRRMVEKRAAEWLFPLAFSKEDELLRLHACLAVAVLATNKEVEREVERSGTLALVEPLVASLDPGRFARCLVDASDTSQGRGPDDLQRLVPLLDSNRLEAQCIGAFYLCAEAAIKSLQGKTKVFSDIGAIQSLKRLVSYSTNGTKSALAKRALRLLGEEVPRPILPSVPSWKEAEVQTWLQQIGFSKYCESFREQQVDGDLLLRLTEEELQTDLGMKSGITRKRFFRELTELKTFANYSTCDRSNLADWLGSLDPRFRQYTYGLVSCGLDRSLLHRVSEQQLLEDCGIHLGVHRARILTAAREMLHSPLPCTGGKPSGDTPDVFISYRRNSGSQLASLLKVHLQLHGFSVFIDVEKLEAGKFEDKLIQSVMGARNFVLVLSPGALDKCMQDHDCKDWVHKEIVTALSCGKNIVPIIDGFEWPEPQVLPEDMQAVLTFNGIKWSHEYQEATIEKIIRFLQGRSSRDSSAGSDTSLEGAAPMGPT
Assay type: biochemical
Procedure, shortened: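 Reaction buffer was Dulbecco's PBS. Compound and 2 nM human SARM1 (50-724) were pre-incubated 15 min at room temperature, then […] NAD^+ and 200 µM NMN activator were added for 1 h at room temperature. Acetonitrile (70%) stop, LC-MS/MS read-out, IC50 values.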

IC50 [nM] | SMILES
100 to 500 | FC(F)(F)c1ccc2[nH]c(-c3nnccc3-c3ccncc3C(F)(F)F)nc2c1 [Compound 302, 5-(Trifluoromethyl)-2-(4-(3-(trifluoromethyl)pyridin-4-yl)pyridazin-3-yl)-1H-benzo[d]imidazole]
≤ 100 | CC1CC1c1cc(F)c2[nH]c(-c3nncn3-c3cnccc3C(F)(F)F)nc2c1 (stereo not shown) [Compound 330, 7-fluoro-5-(2-methylcyclopropyl)-2-(4-(4-(trifluoromethyl)pyridin-3-yl)-4H-1,2,4-triazol-3-yl)-1H-benzo[d]imidazole]
≤ 100 | CC1(c2ccc3[nH]c(-c4nncn4-c4cccc(F)c4Cl)nc3c2)CC(O)C1 (stereo not shown) [Compound 191, 3-(2-(4-(2-chloro-3-fluorophenyl)-4H-1,2,4-triazol-3-yl)-1H-benzo[d]imidazol-5-yl)-3-methylcyclobutan-1-ol]
≤ 100 | Cc1cc(-c2ccc3[nH]c(-c4nncn4-c4cccc(Cl)c4Cl)nc3c2)n(C)n1 [Example 74, 2-(4-(2,3-dichlorophenyl)-4H-1,2,4-triazol-3-yl)-5-(1,3-dimethyl-1H-pyrazol-5-yl)-1H-benzo[d]imidazole]
100 to 500 | COCCOc1c(Cl)ccc2[nH]c(-c3nncn3-c3cnccc3C(F)(F)F)nc12 [Compound 371, 5-chloro-4-(2-methoxyethoxy)-2-(4-(4-(trifluoromethyl)pyridin-3-yl)-4H-1,2,4-triazol-3-yl)-1H-benzo[d]imidazole]
≤ 100 | CS(=O)(=O)Cc1nnc(-c2cc3cc(C(F)(F)F)ccc3[nH]2)n1-c1cnccc1C(F)(F)F [Compound 380, 2-(5-((methylsulfonyl)methyl)-4-(4-(trifluoromethyl)pyridin-3-yl)-4H-1,2,4-triazol-3-yl)-5-(trifluoromethyl)-1H-indole]
> 1000 | FC(F)(F)c1ccc2[nH]c([C@H]3COC[C@H]3c3ccccc3)nc2c1 (single isomer, unassigned) [Compound 351]
≤ 100 | CNC(=O)CCc1nnc(-c2nc3cc(C(F)(F)F)ccc3[nH]2)n1-c1cccc(Cl)c1Cl [Compound 156, 3-(4-(2,3-dichlorophenyl)-5-(5-(trifluoromethyl)-1H-benzo[d]imidazol-2-yl)-4H-1,2,4-triazol-3-yl)-N-methylpropanamide]
≤ 100 | CC(c1cccnc1)c1cc(F)c2[nH]c(-c3nncn3-c3cnccc3C(F)(F)F)nc2c1 (stereo not shown) [Compound 444, 7-fluoro-5-(1-(pyridin-3-yl)ethyl)-2-(4-(4-(trifluoromethyl)pyridin-3-yl)-4H-1,2,4-triazol-3-yl)-1H-benzo[d]imidazole]
≤ 100 | O=c1cc(-n2cnnc2-c2nc3cc(C(F)(F)F)ccc3[nH]2)c(Cl)c[nH]1 [Compound 163, 5-Chloro-4-(3-(5-(trifluoromethyl)-1H-benzo[d]imidazol-2-yl)-4H-1,2,4-triazol-4-yl)pyridin-2(1H)-one]
≤ 100 | FC(F)(F)Oc1ccc(OC2COC2)cc1-n1cnnc1-c1nc2cc(C(F)(F)F)ccc2[nH]1 [Compound 271, 2-(4-(5-(oxetan-3-yloxy)-2-(trifluoromethoxy)phenyl)-4H-1,2,4-triazol-3-yl)-5-(trifluoromethyl)-1H-benzo[d]imidazole]
500 to 1000 | CCOC(=O)/C=C/c1cccc2[nH]c(-c3nncn3-c3cnccc3C(F)(F)F)nc12 [Compound 459, ethyl (E)-3-(2-(4-(4-(trifluoromethyl)pyridin-3-yl)-4H-1,2,4-triazol-3-yl)-1H-benzo[d]imidazol-4-yl)acrylate]
≤ 100 | [2H]c1nnc(-c2nc3c(F)c(C4([2H])CC4)cc(F)c3[nH]2)n1-c1cnccc1C(F)(F)F [Compound 394, 5-(cyclopropyl-1-d)-4,7-difluoro-2-(4-(4-(trifluoromethyl)pyridin-3-yl)-4H-1,2,4-triazol-3-yl-5-d)-1H-benzo[d]imidazole]
≤ 100 | CNC(=O)c1cc(F)c(Cl)c(-n2cnnc2-c2nc3cc(C(F)(F)F)cc(F)c3[nH]2)c1 [Compound 205, 4-chloro-3-fluoro-5-(3-(7-fluoro-5-(trifluoromethyl)-1H-benzo[d]imidazol-2-yl)-4H-1,2,4-triazol-4-yl)-N-methylbenzamide]
≤ 100 | Fc1cc(C2CC23CCOC3)cc2nc(-c3nncn3-c3cnccc3C(F)(F)F)[nH]c12 (stereo not shown) [Compound 414, 7-fluoro-5-(5-oxaspiro[2.4]heptan-2-yl)-2-[4-[4-(trifluoromethyl)-3-pyridyl]-1,2,4-triazol-3-yl]-1H-benzimidazole]
≤ 100 | CNc1ccc(Cl)c(-n2cnnc2-c2nc3cc(C(F)(F)F)ccc3[nH]2)n1 [Compound 175, 5-Chloro-N-methyl-6-(3-(5-(trifluoromethyl)-1H-benzo[d]imidazol-2-yl)-4H-1,2,4-triazol-4-yl)pyridin-2-amine]

IC50 [nM] | SMILES
> 1000 | Cc1cnc2[nH]c(-c3nncn3-c3cccc(F)c3Cl)nc2n1 [Compound 176, 2-(4-(2-chloro-3-fluorophenyl)-4H-1,2,4-triazol-3-yl)-6-methyl-1H-imidazo[4,5-b]pyrazine]
> 1000 | Cc1ccc2[nH]c(-c3ncccc3C3CCCC3)nc2c1 [Compound 7, 2-(3-cyclopentylpyridin-2-yl)-5-methyl-1H-benzo[d]imidazole]
500 to 1000 | FC(F)(F)c1ccc2[nH]c(-c3n[nH]nc3-c3cccc(Cl)c3Cl)nc2c1 [Compound 274, 2-(5-(2,3-dichlorophenyl)-2H-1,2,3-triazol-4-yl)-5-(trifluoromethyl)-1H-benzo[d]imidazole]
500 to 1000 | FC(F)(F)c1ccc2[nH]c(C3COCCN3c3cccc(Cl)c3Cl)nc2c1 (stereo not shown) [Compound 363, 4-(2,3-dichlorophenyl)-3-[5-(trifluoromethyl)-1H-benzimidazol-2-yl]morpholine]
100 to 500 | NC(=O)c1nnc(-c2nc3cc(C(F)(F)F)ccc3[nH]2)n1-c1cccc(Cl)c1Cl [Compound 77]
> 1000 | FC(F)(F)c1ncc2[nH]c(-c3nncn3-c3cnccc3C(F)(F)F)cc2n1 [Compound 378, 2-(trifluoromethyl)-6-(4-(4-(trifluoromethyl)pyridin-3-yl)-4H-1,2,4-triazol-3-yl)-5H-pyrrolo[3,2-d]pyrimidine]
≤ 100 | CS(=O)(=O)NCc1nnc(-c2nc3cc(C(F)(F)F)ccc3[nH]2)n1-c1cccc(Cl)c1Cl [Compound 139, N-((4-(2,3-dichlorophenyl)-5-(5-(trifluoromethyl)-1H-benzo[d]imidazol-2-yl)-4H-1,2,4-triazol-3-yl)methyl)methanesulfonamide]
≤ 100 | CS(=O)(=O)Cc1nnc(-c2nc3cc(C(F)(F)F)cc(F)c3[nH]2)n1-c1cccc(F)c1Cl (single isomer, unassigned) [Compound 184, 2-(4-(2-Chloro-3-fluorophenyl)-5-((methylsulfonyl)methyl)-4H-1,2,4-triazol-3-yl)-7-fluoro-5-(trifluoromethyl)-1H-benzo[d]imidazole]
100 to 500 | CS(=O)(=O)Cc1nnc(-c2nc3cc(C(F)(F)F)cc(F)c3[nH]2)n1-c1cccc(Cl)c1Cl (single isomer, unassigned) [Compound 186]
≤ 100 | OCCOc1cc(-n2cnnc2-c2cc3cc(C(F)(F)F)cc(F)c3[nH]2)c(OC(F)(F)F)cn1 [Compound 411, 2-((4-(3-(7-fluoro-5-(trifluoromethyl)-1H-indol-2-yl)-4H-1,2,4-triazol-4-yl)-5-(trifluoromethoxy)pyridin-2-yl)oxy)ethanol]
≤ 100 | CC(c1cc(F)c2[nH]c(-c3nncn3-c3cnccc3C(F)(F)F)nc2c1)c1ncco1 (stereo not shown) [Compound 435, 2-(1-(7-fluoro-2-(4-(4-(trifluoromethyl)pyridin-3-yl)-4H-1,2,4-triazol-3-yl)-1H-benzo[d]imidazol-5-yl)ethyl)oxazole]
≤ 100 | Cn1nc(-n2cnnc2-c2nc3cc(C(F)(F)F)ccc3[nH]2)c(Cl)c1Cl [Example 53, 2-(4-(4,5-Dichloro-1-methyl-1H-pyrazol-3-yl)-4H-1,2,4-triazol-3-yl)-5-(trifluoromethyl)-1H-benzo[d]imidazole]
≤ 100 | Fc1cc(C(F)(F)c2ccncc2)cc2nc(-c3nncn3-c3cnccc3C(F)(F)F)[nH]c12 [Compound 464, 6-(difluoro(pyridin-4-yl)methyl)-4-fluoro-2-(4-(4-(trifluoromethyl)pyridin-3-yl)-4H-1,2,4-triazol-3-yl)-1H-benzo[d]imidazole]
≤ 100 | Cc1nnc(-c2nc3cc(C(F)(F)F)ccc3[nH]2)n1-c1cccc(Cl)c1Cl [Example 87, 2-(4-(2,3-dichlorophenyl)-5-methyl-4H-1,2,4-triazol-3-yl)-5-(trifluoromethyl)-1H-benzo[d]imidazole]
> 1000 | CC(CN(C)C)c1ccc2[nH]c(-c3nncn3-c3cnccc3C(F)(F)F)nc2c1 (stereo not shown) [Compound 365]
